Results reported in US20120225093A1, “Abrogating HIV-1 Infection via Drug-Induced Reactivation of Apoptosis” (UNIVERSITY OF MEDICINE AND DENTISTRY OF NEW JERSEY, priority 2010, published 2012).

Key:
[1] = human, in vivo, cited from earlier work
[2] = test system: CMV immediate early promoter; assay: CMV promoter-driven luciferase (pCMV-Ren, pCMV-FF) in 293T cells; format: cell-based, cytomegalovirus; settings: for CMV-driven Renilla luciferase expression: pCMV-Ren
Protocol: Plasmids were introduced into 2×10^5 293T cells by transfection using Lipofectamine 2000 (Invitrogen) according to the manufacturer's instructions. Compounds (such as CPX or DEF) were added simultaneously. Cells were harvested at 12 hr post-transfection, washed with PBS, lysed in 0.15 ml of 1× passive lysis buffer (Promega), and assayed for luciferase activity using the Promega dual luciferase reporter system according to the manufacturer's instructions. Jurkat cells (1×10^6 cells) were transfected using FuGENE 6 (Roche) according to the manufacturer's instructions and assayed in a similar fashion after pelleting.
293T cells were selected as a model system to explore the relationship between the drugs, eIF5A and HIV gene expression. These cells efficiently transcribe HIV-1 genes from molecular clones as well as subviral constructs, allowing for early detection of changes in HIV gene expression. To establish the system, assays were carried out to examine the effect of CPX and DEF on the expression of firefly luciferase (FF) from the HIV-1 molecular clone, pNL4-3-LucE-, engineered to carry the FF gene in place of the viral nef gene. The molecular clone was transfected into 293T cells together with the pCMV-Ren vector that expresses Renilla luciferase (Ren) from the cytomegalovirus (CMV) immediate early promoter as a control for transfection efficiency and non-specific effects of the compounds. Dual luciferase assays were conducted at 12 hr post-transfection and results are expressed as relative luciferase activity (FF:Ren). […] Assays therefore were carried out to characterize the action of CPX and DEF on eIF5A and HIV gene expression in 293T cells during the first 12 to 24 hr of drug treatment.

uninfected H9 cells = assay: Mitochondrial membrane potential (JC-1) in uninfected H9 cells; format: cell-based; settings: 30 μM CPX; 200 μM DEF
Protocol: The potential across the mitochondrial membrane of live cells was determined flow-cytometrically with the lipophilic cationic fluorochrome JC-1 (5,5′,6,6′-tetrachloro-1,1′,3,3′-tetraethylbenzimidazolcarbocyanine iodide) immediately after sample harvest (BD™ Mitoscreen Kit, BD Biosciences; San Diego, Calif.). DNA fragmentation was quantified flow-cytometrically, using a TUNEL (terminal deoxynucleotide transferase dUTP nick end-labeling) assay (APO-BRDU™; Phoenix Flow Systems; San Diego, Calif.) and a dual-color assay for annexin V binding and 7-AAD exclusion (Annexin V-PE 7-AAD Apoptosis Detection Kit I™; BD Biosciences Pharmingen, San Jose, Calif.). The apoptotic volume decrease of cells was assessed by the reduction of their diameter (VI-CELL™; Beckman Coulter; Fullerton, Calif.).
Next the effect of the drugs on apoptosis in H9 and H9-HIV cells was examined. Both CPX and DEF increased the collapse of Δψ in a manner that was dose-dependent and accentuated by viral infection (FIGS. 8E and F). […] Thus, exposure to CPX or DEF counteracted the HIV-mediated reduction of Δψ collapse and rendered infected cells more susceptible than uninfected cells to an early step in drug-induced apoptosis.

H9-HIV cells = assay: Intracellular cellular and retroviral proteins by flow cytometry in H9-HIV cells; format: cell-based
Protocol: Intracellular antigens were determined, as geometric means of fluorescence, by flow cytometric analysis using a BD FACSCalibur™ and its BD FACStation System™ (Becton Dickinson; San Jose, Calif.). Intracellular antigens were stained according to the instrument producer's instructions.
CD4+ T cells isolated from infected individuals have increased Bcl-2 levels compared to uninfected lymphocytes and some reports implicate HIV-1 Tat in preventing apoptosis in persistently infected cells by inducing the transcription of Bcl-2. Since CPX blocks HIV-1 gene expression, Bcl-2 expression in H9 and H9-HIV cells was determined. […] Retroviral proteins can also control apoptosis. Therefore, assays were carried out to measure the response of individual retroviral proteins in H9-HIV (FIG. 10C) to the shut-down of the HIV-1 promoter by CPX. […] Vpr induces apoptosis via caspase-3 activation.

HIV-1 = assay: Persistent PBMC infection model, long-term culture with drug withdrawal; format: cell-based; settings: for rebound of HIV-1 infection after drug withdrawal: off-drug inspection period extending to 12 weeks
Protocol: Uninfected (5×10^6 cells) and infected PBMCs (0.5×10^6 cells) were co-incubated in a 25 ml culture flask at a final concentration of 0.22×10^6 cells/ml. Cultures were allowed to establish productive infection, defined by medium p24 at or above 250 pg/ml, and CPX was added. Cultures were replenished with Medium B and freshly isolated uninfected PBMCs on alternate days. For replacement of Medium B, half of the supernatant was gently exchanged without disturbing the cells, and the drug concentration was adjusted appropriately. For replacement with freshly isolated, stimulated and uninfected PBMCs, half of the cells and supernatant were removed and replaced with 2.5×10^6 cells in the proper volume of Medium B, with adjustment of the drug concentration. Cell-free supernatants were saved for p24 and viral RNA measurements.
p24 core antigen in the supernatant was quantified by ELISA (Retrotek HIV-1 p24™; ZeptoMetrix Corp.; Buffalo, N.Y.). HIV-1 RNA copy number in the supernatant was determined with a PCR-based and FDA-approved assay (Amplicor HIV-1 Monitor™; Roche Diagnostics Corp.; Indianapolis, Ind.). IFN-γ and IL-10 in the supernatant were determined by cytometric bead array (Human Th1/Th2 Cytokine Kit II™; BD Biosciences Pharmingen, San Jose, Calif.).
Next, assays were carried out to examine whether CPX can control established HIV-1 infection in primary cells. Long-term PBMC cultures were employed as a model for on-going, self-sustaining HIV-1 production. As before, infection was initiated by exposure to patient isolate-infected cells. To emulate the bulk flow of susceptible cells from a generative into an infective compartment that occurs in vivo, a replenishment protocol was followed. Freshly isolated uninfected primary cells were infused into the infected cultures at regular intervals during multi-month monitoring of viral parameters. HIV-1 RNA reached the range of 10^6 copies/ml within a week of patient isolate inoculation, and this robust infection was sustained for >3 months (FIG. 14; open squares).

[3] = CPX 30 μM from day 7 for one month, isolate #990,010

SMILES: Cc1cc(C2CCCCC2)n(O)c(=O)c1 [CPX, 6-cyclohexyl-1-hydroxy-4-methylpyridin-2[1H]-one]
- systemic absorption [1]: miniscule systemic absorption
- expression from pCMV-FF (construct I) [2]: unaffected
- CMV-driven Renilla luciferase expression [2]: no effect on CMV-driven Renilla luciferase expression
- concentrations needed for enhanced Δψ collapse (uninfected H9 cells): higher concentrations were required
- active caspase-3 (H9-HIV cells; 30 μM CPX, 24 and 48 hr): the increase in Vpr paralleled that of active caspase-3
- intracellular Rev (H9-HIV cells; 30 μM CPX, 24 and 48 hr): only marginally affected
- intracellular Tat (H9-HIV cells; 30 μM CPX, 24 and 48 hr): similarly reduced
- increase of Vpr level (H9-HIV cells; 30 μM CPX, within 24 hr): ~15%
- reduction of intracellular p24 (H9-HIV cells; 30 μM CPX, within 24 hr): 30%
- increase of Vpr level (H9-HIV cells; 30 μM CPX, within 48 hr): ~70%
- reduction of intracellular p24 (H9-HIV cells; 30 μM CPX, within 48 hr): 70%
- dose-dependent change in Bcl-2 content (H9-HIV cells; 24 hr, H9 and H9-HIV): neither of these measures achieved statistical significance
- cells positive for Bcl-2 (H9-HIV cells; CPX 24 hr, irrespective of infection (H9 and H9-HIV)): ~35%
- day after which viral RNA was not detected (HIV-1; CPX 30 μM from day 7): > 38 days
- day after which viral protein was not detected (HIV-1; CPX 30 μM from day 7): > 21 days
- decline in HIV-1 RNA levels (HIV-1; CPX 30 μM from day 7): four orders of magnitude
- level of p24 (HIV-1; [3]): to the limit of detectability
- level of viral RNA (HIV-1; [3]): to the limit of detectability
- rebound of HIV-1 infection after drug withdrawal (HIV-1): productive infection does not return after drug removal

SMILES: Cc1c(O)c(=O)ccn1C [DEF, 3-hydroxy-1,2-dimethylpyridin-4(1H)-one]
- concentration in serum ([1]; po): ≥ 250 µM
- plasma levels ([1]; po): up to 350 μM
- expression from pCMV-FF (construct I) [2]: unaffected
- CMV-driven Renilla luciferase expression [2]: no effect on CMV-driven Renilla luciferase expression
- concentrations needed for enhanced Δψ collapse (uninfected H9 cells): higher concentrations were required
- response of retroviral proteins Rev, p24, Tat, Vpr (H9-HIV cells; DEF): sparing Rev, decreasing p24 and Tat, and increasing Vpr
- rebound of HIV-1 infection after drug withdrawal (HIV-1): productive infection does not return after drug removal
